Assays:
Assay type in all cases: cell-based
[1] = system: HCV genotype 1a L31V variant with leucine 31 changed to valine in the NS5A protein; assay: microbe, parasite or virus in culture; details: genotype 1a L31V replicon; test compound titrated with compound N47 fixed at 200 nM versus singly
[2] = system: HCV genotype 1a Y93H variant with tyrosine 93 changed to histidine in the NS5A protein; assay: microbe, parasite or virus in culture; details: genotype 1a Y93H replicon; test compound titrated with compound N47 fixed at 200 nM versus singly
Protocol: Combinations can be examined for synergistic activity using a variety of putative NS5A-targeting compounds and a variety of test compounds. […] The test compound can be chosen from compounds exemplified below, which were prepared by methods known in the art, or from others disclosed in the literature.
Similarly, BMS-790052 can be tested singly and in combination with a fixed amount of compound N47 in the HCV replicon cell based assay consisting of the genotype 1a Y93H variant with tyrosine 93 changed to histidine in the NS5A protein.

[3] = system: HCV genotype-1a variant with glutamine 30 changed to glutamate in the NS5A protein; details: test compound titrated with BMS-790052 fixed at 200 nM; genotype 1a Q30E replicon
Summary of the method: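 Synergy was assessed by combining several fixed amounts of an NS5A-targeting compound with a titration of the second compound of interest.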

| SMILES | Fold-Synergistic G-1a (L31V) [1] [fold] | Fold-Synergistic G-1a (Y93H) [2] [fold] | Fold-Synergistic 1a (Q30E) [3] [fold] |
| --- | --- | --- | --- |
| COC(=O)NC(C(=O)N1[C@@H](C)CC[C@H]1c1ncc(-c2ccc(-c3cnc(-c4cnc([C@@H]5CC[C@H](C)N5C(=O)[C@@H](NC(=O)OC)[C@H]5C[C@@H](C)O[C@@H](C)C5)[nH]4)c4cccn34)cc2)[nH]1)[C@H]1C[C@@H](C)O[C@@H](C)C1 (stereo partly shown) | >10 | >100 | – |
| CC[C@H]1CC[C@@H](c2ncc(-c3ccc(-c4ccc(-c5cnc([C@@H]6CC[C@H](CC)N6C(=O)[C@@H](NC(=O)OC)C(C)C)[nH]5)cc4)cc3)[nH]2)N1C(=O)[C@@H](NC(=O)OC)C(C)C | >100 | >100 | – |
| COC(=O)N[C@@H](C(=O)N1CCC[C@H]1c1ncc(-c2nc3cc4sc(-c5cnc([C@@H]6CCCN6C(=O)[C@H](NC(=O)OC)c6ccccc6)[nH]5)nc4cc3s2)[nH]1)c1ccccc1 | <10 | >100 | – |
| COC(=O)N[C@H](C(=O)N1CC2(CC2)C[C@H]1c1nc(-c2ccc3c(c2)C(F)(F)c2cc(-c4ccc5nc([C@@H]6[C@H]7CC[C@H](C7)N6C(=O)[C@@H](NC(=O)OC)C(C)C)[nH]c5c4)ccc2-3)c[nH]1)C(C)C | >10 | >100 | – |
| C[C@H](NC(=O)[C@@H](O)c1ccccc1)C(=O)Nc1ccc(-c2cnc(-c3ccc(NC(=O)[C@H](C)NC(=O)[C@@H](O)c4ccccc4)cc3)o2)cc1 | <10 | <10 | – |
| CN(C)C(C(=O)N1CCC[C@H]1c1nc(-c2ccc3nc([C@@H]4CCCN4C(=O)C(c4ccccc4)N(C)C)[nH]c3c2)c[nH]1)c1ccccc1 (stereo partly shown) | <10 | <10 | – |
| COC(=O)N[C@H](C(=O)N1[C@@H]2C[C@@H]2C[C@H]1c1ncc(-c2ccc(C#Cc3ccc(-c4cnc([C@@H]5C[C@H]6C[C@H]6N5C(=O)[C@@H](NC(=O)OC)C(C)C)[nH]4)cc3C)c(C)c2)[nH]1)C(C)C | <10 | <10 | – |
| COC(=O)N[C@H](C(=O)N1CCCC1c1nc2cc(-c3ccc4cc(-c5ccc(-c6cnc([C@@H]7CCCN7C(=O)[C@@H](NC(=O)OC)C(C)C)[nH]6)cc5)ccc4c3)ccc2[nH]1)C(C)C (stereo partly shown) | >10 | >10 | – |
| COC(=O)N[C@@H](C(=O)N1CCC[C@H]1c1nc(-c2ccc(Oc3ccc(-c4c[nH]c([C@@H]5CCCN5C(=O)[C@H](NC(=O)OC)c5ccccc5)n4)cc3)cc2)c[nH]1)c1ccccc1 | <10 | <10 | – |
| O=C(Nc1ccc(-c2nnc(-c3ccc(NC(=O)[C@@H]4CCCN4C(=O)Cc4cccnc4)cc3)o2)cc1)[C@@H]1CCCN1C(=O)Cc1cccnc1 | <10 | <10 | – |
| COC(=O)N[C@H](C(=O)N1[C@@H]2CCC[C@@H]2C[C@H]1c1nc(-c2ccc(-c3ccc(-c4c[nH]c([C@@H]5C[C@H]6CCC[C@H]6N5C(=O)[C@@H](NC(=O)OC)C(C)C)n4)cc3)cc2)c[nH]1)C(C)C | >100 | >100 | – |
| CN(C)[C@@H](C(=O)N1CCC[C@H]1c1ncc(-c2ccc(-c3ccc(-c4cnc([C@@H]5CCCN5C(=O)[C@@H](c5ccccc5)N(C)C)[nH]4)s3)s2)[nH]1)c1ccccc1 | <10 | <10 | – |
| O=C(Nc1ccc(/C=C/c2ccc(NC(=O)[C@@H]3COCN3C(=O)OCc3ccccc3)cc2)cc1)[C@@H]1COCN1C(=O)OCc1ccccc1 | <10 | <10 | – |
| COC(=O)N[C@H](C(=O)N1CCC[C@H]1c1nc(C2=CCC(C3CC=C(c4c[nH]c([C@@H]5CCCN5C(=O)[C@@H](NC(=O)OC)C(C)C)n4)CC3)CC2)c[nH]1)C(C)C (stereo partly shown) | >100 | >100 | – |
| COC(=O)N[C@H](C(=O)N1CCC[C@H]1c1nc(-c2ccc(-c3ccc(-c4ccc5nc([C@@H]6CCCN6C(=O)[C@@H](NC(=O)OC)C(C)C)[nH]c5c4)cc3)cc2)c[nH]1)C(C)C | >10 | >10 | – |
| COC(=O)N[C@H](C(=O)N1CCCC1c1cn(-c2ccc(-c3ccc(-n4cnc(C5CCCN5C(=O)[C@@H](NC(=O)OC)C(C)C)c4)cc3)cc2)cn1)C(C)C (stereo partly shown) | >10 | >10 | – |

| SMILES | Fold-Synergistic G-1a (L31V) [1] [fold] | Fold-Synergistic G-1a (Y93H) [2] [fold] | Fold-Synergistic 1a (Q30E) [3] [fold] |
| --- | --- | --- | --- |
| COC(=O)N[C@H](C(=O)N1[C@@H]2CC[C@@H]2C[C@H]1c1nc(-c2ccc(-c3ccc(-c4cnc([C@@H]5C[C@H]6CC[C@H]6N5C(=O)[C@@H](NC(=O)OC)C(C)C)[nH]4)cc3)cc2)c[nH]1)C(C)C | >100 | >100 | – |
| CN(C)[C@@H](C(=O)N1CCC[C@H]1C(=O)Nc1cccc(-c2ncc(-c3ccc4nc([C@@H]5CCCN5C(=O)[C@@H](c5ccccc5)N(C)C)[nH]c4c3)o2)c1)c1ccccc1 | <10 | <10 | – |
| COC(=O)N[C@H](C(=O)N1CCC[C@H]1c1ncc(-c2ccc(C#Cc3ccc4c(ccc5[nH]c([C@@H]6CCCN6C(=O)[C@@H](NC(=O)OC)C(C)C)nc54)c3)cc2)[nH]1)C(C)C | <10 | >100 | – |
| COC(=O)N[C@H](C(=O)N1CCC[C@H]1c1ncc(-c2ccc([C@H]3CC[C@H](c4ccc(-c5cnc([C@@H]6CCCN6C(=O)[C@@H](NC(=O)OC)C(C)C)[nH]5)cc4)N3c3ccc(F)cc3)cc2)[nH]1)C(C)C | – | >10 | – |
| Cc1nc2ccc(-c3cnc(-c4ccc5nc([C@@H]6CCCN6C(=O)[C@@H](c6ccccc6)N(C)C)[nH]c5c4)o3)cc2[nH]1 | <10 | <10 | – |
| COC(=O)N[C@@H](C(=O)N1CCC[C@H]1c1nc2ccc(-c3ncc(-c4ccc(N5CCOCC5)cc4)o3)cc2[nH]1)c1ccccc1 | <10 | <10 | – |
| COC(=O)N[C@@H](C)C(=O)N1[C@@H]2CC[C@@H](C2)[C@H]1c1nc(-c2ccc(-c3ccc(-c4cnc([C@@H]5[C@H]6CC[C@H](C6)N5C(=O)[C@H](C)NC(=O)OC)[nH]4)cc3)cc2)c[nH]1 | >10 | <10 | – |
| COC(=O)N[C@H](C(=O)N1CCC[C@H]1c1nc2cc(-c3ccc4c(ccc5[nH]c([C@@H]6CCCN6C(=O)[C@@H](NC(=O)OC)C(C)C)nc54)c3)ccc2[nH]1)C(C)C | >10 | >100 | – |
| COC(=O)N[C@H](C(=O)N1CCC[C@H]1c1ncc(-c2ccc([C@H]3CC[C@@H](c4ccc(-c5cnc([C@@H]6CCCN6C(=O)[C@@H](NC(=O)OC)C(C)C)[nH]5)cc4)N3c3ccc(F)cc3)cc2)[nH]1)C(C)C | – | >10 | – |
| CC(C)[C@H](NC(=O)c1ccc(C(F)(F)F)nc1)c1ncc(-c2ccc(-c3ccc(-c4cnc([C@@H](NC(=O)c5ccc(C(F)(F)F)nc5)C(C)C)[nH]4)cc3)cc2)[nH]1 [Compound S-103] | – | – | >100 |
| CC(C)[C@H](NC(=O)C1CCC(F)(F)CC1)c1ncc(-c2ccc3c(c2)Cc2cc(-c4cnc([C@@H](NC(=O)C5CCC(F)(F)CC5)C(C)C)[nH]4)ccc2-3)[nH]1.O=C(O)C(F)(F)F [Compound N-70] | – | – | >100 |
| COC(C)(CCO)C(=O)N[C@H](c1nc(-c2ccc(-c3ccc(-c4c[nH]c([C@@H](NC(=O)C(C)(CCO)OC)C(C)(C)C)n4)cc3)cc2)c[nH]1)C(C)(C)C (single isomer, unassigned) [Compound W-257] | – | – | >100 |
| CC(C)[C@H](NC(=O)C(C)(C)C)c1ncc(-c2ccc3cc4cc(-c5cnc([C@@H](NC(=O)C(C)(C)C)C(C)C)[nH]5)ccc4cc3c2)[nH]1.O=C(O)C(F)(F)F [Compound B30] | – | – | >100 |
| CC(C)[C@H](NC(=O)Cc1cccs1)c1ncc(-c2ccc(-c3ccc(-c4cnc([C@@H](NC(=O)Cc5cccs5)C(C)C)[nH]4)cc3)cc2)[nH]1 [Compound P-78] | – | – | >100 |
| CC(C)(C)[C@H](NC(=O)C1CCC(F)(F)CC1)c1ncc(-c2ccc(-c3ccc(-c4ccc5nc([C@@H](NC(=O)C6CCC(F)(F)CC6)C(C)(C)C)[nH]c5c4)cc3)cc2)[nH]1 [Compound B56] | – | – | >100 |
| CC(C)[C@H](NC(=O)C(C)(C)OCCF)c1ncc(-c2ccc(-c3ccc(-c4cnc([C@@H](NC(=O)C(C)(C)OCCF)C(C)C)[nH]4)cc3)cc2)[nH]1 [Compound Y-32] | – | – | >100 |

— patent US20160158200A1, “Combinations of Hepatitis C Virus Inhibitors” (priority 2013, published 2016)
